Reference: patent US11098038B2, “Imidazole-based anticancer agents and derivatives thereof, and methods of making and using same” (The University of Toledo, priority 2017, dated 2021)

How the values were obtained:
[1] = system: COLO 205; assay: NCI 60 screen, COLO 205; assay type: cell-based; details: Homo sapiens, Colon
Procedure: (§1) The compounds synthesized were tested at the National Cancer Institute (NCI) for anti-proliferative activity in the 60 human tumor cell line assay.

[2] = system: OVCAR-8; assay: NCI 60 screen, OVCAR-8; assay type: cell-based; details: Homo sapiens, Ovarian
Procedure: as §1

[3] = system: T-47D; assay: NCI 60 screen, T-47D; assay type: cell-based; details: Homo sapiens, T47D, Breast
Procedure: as §1

[4] = system: HOP-92; assay: NCI 60 screen, HOP-92; assay type: cell-based; details: Homo sapiens, Non-Small Cell Lung
Procedure: as §1

[5] = system: HCT15; assay: NCI 60 screen, HCT15; assay type: cell-based; details: Homo sapiens, HCT-15, Colon
Procedure: as §1

[6] = system: NCI-H226; assay: NCI 60 screen, NCI-H226; assay type: cell-based; details: Homo sapiens, Non-Small Cell Lung
Procedure: as §1

[7] = system: SK-MEL-5; assay: NCI 60 screen, SK-MEL-5; assay type: cell-based; details: Homo sapiens, Melanoma
Procedure: as §1

[8] = system: MDA-MB-231/ATCC; assay: NCI 60 screen, MDA-MB-231/ATCC; assay type: cell-based; details: Homo sapiens, Breast
Procedure: as §1

[9] = system: CCRF-CEM; assay: NCI 60 screen, CCRF-CEM; assay type: cell-based; details: Homo sapiens, Leukemia
Procedure: as §1

[10] = system: SW-620; assay: NCI 60 screen, SW-620; assay type: cell-based; details: Homo sapiens, Colon
Procedure: as §1

[11] = system: CAKI-1; assay: NCI 60 screen, CAKI-1; assay type: cell-based; details: Homo sapiens, Renal
Procedure: as §1

[12] = system: 786-0; assay: NCI 60 screen, 786-0; assay type: cell-based; details: Homo sapiens, Renal
Procedure: as §1

[13] = system: HCT-116; assay: NCI 60 screen, HCT-116; assay type: cell-based; details: Homo sapiens, Colon
Procedure: as §1

[14] = system: SNB-19; assay: NCI 60 screen, SNB-19; assay type: cell-based; details: Homo sapiens, CNS
Procedure: as §1

[15] = system: TK-10; assay: NCI 60 screen, TK-10; assay type: cell-based; details: Homo sapiens, Renal
Procedure: as §1

[16] = system: MDA-MB-435; assay: NCI 60 screen, MDA-MB-435; assay type: cell-based; details: Homo sapiens, Melanoma
Procedure: as §1

[17] = system: UO-31; assay: NCI 60 screen, UO-31; assay type: cell-based; details: Homo sapiens, Renal
Procedure: as §1

[18] = system: UACC-257; assay: NCI 60 screen, UACC-257; assay type: cell-based; details: Homo sapiens, Melanoma
Procedure: as §1

[19] = system: HL-60(TB); assay: NCI 60 screen, HL-60(TB); assay type: cell-based; details: Homo sapiens, Leukemia
Procedure: as §1

[20] = system: OVCAR-5; assay: NCI 60 screen, OVCAR-5; assay type: cell-based; details: Homo sapiens, Ovarian
Procedure: as §1

[21] = system: LOX IMVI; assay: NCI 60 screen, LOX IMVI; assay type: cell-based; details: Homo sapiens, Melanoma
Procedure: as §1

[22] = system: HS 578T; assay: NCI 60 screen, HS 578T; assay type: cell-based; details: Homo sapiens, Breast
Procedure: as §1

[23] = system: EKVX; assay: NCI 60 screen, EKVX; assay type: cell-based; details: Homo sapiens, Non-Small Cell Lung
Procedure: as §1

[24] = system: NCI-H23; assay: NCI 60 screen, NCI-H23; assay type: cell-based; details: Homo sapiens, Non-Small Cell Lung
Procedure: as §1

[25] = system: OVCAR-3; assay: NCI 60 screen, OVCAR-3; assay type: cell-based; details: Homo sapiens, Ovarian
Procedure: as §1

[26] = system: U251; assay: NCI 60 screen, U251; assay type: cell-based; details: Homo sapiens, U-251, CNS
Procedure: as §1

[27] = system: MALME-3M; assay: NCI 60 screen, MALME-3M; assay type: cell-based; details: Homo sapiens, Melanoma
Procedure: as §1

[28] = system: SNB-75; assay: NCI 60 screen, SNB-75; assay type: cell-based; details: Homo sapiens, CNS
Procedure: as §1

[29] = system: HCC-2998; assay: NCI 60 screen, HCC-2998; assay type: cell-based; details: Homo sapiens, Colon
Procedure: as §1

[30] = system: MOLT-4; assay: NCI 60 screen, MOLT-4; assay type: cell-based; details: Homo sapiens, Leukemia
Procedure: as §1

[31] = system: A498; assay: NCI 60 screen, A498; assay type: cell-based; details: Homo sapiens, Renal
Procedure: as §1

[32] = system: SF-295; assay: NCI 60 screen, SF-295; assay type: cell-based; details: Homo sapiens, CNS
Procedure: as §1

[33] = system: NCI-H522; assay: NCI 60 screen, NCI-H522; assay type: cell-based; details: Homo sapiens, Non-Small Cell Lung
Procedure: as §1

[34] = system: A549/ATCC; assay: NCI 60 screen, A549/ATCC; assay type: cell-based; details: Homo sapiens, Non-Small Cell Lung
Procedure: as §1

[35] = system: HOP-62; assay: NCI 60 screen, HOP-62; assay type: cell-based; details: Homo sapiens, Non-Small Cell Lung
Procedure: as §1

[36] = system: SN12C; assay: NCI 60 screen, SN12C; assay type: cell-based; details: Homo sapiens, Renal
Procedure: as §1

[37] = system: HT29; assay: NCI 60 screen, HT29; assay type: cell-based; details: Homo sapiens, HT-29, Colon
Procedure: as §1

[38] = system: RPMI-8226; assay: NCI 60 screen, RPMI-8226; assay type: cell-based; details: Homo sapiens, Leukemia
Procedure: as §1

[39] = system: ACHN; assay: NCI 60 screen, ACHN; assay type: cell-based; details: Homo sapiens, Renal
Procedure: as §1

[40] = system: DU-145; assay: NCI 60 screen, DU-145; assay type: cell-based; details: Homo sapiens, Prostatic
Procedure: as §1

[41] = system: SF-268; assay: NCI 60 screen, SF-268; assay type: cell-based; details: Homo sapiens, CNS
Procedure: as §1

[42] = system: NCI-460; assay: NCI 60 screen, NCI-460; assay type: cell-based; details: Homo sapiens, Non-Small Cell Lung
Procedure: as §1

[43] = system: SK-OV-3; assay: NCI 60 screen, SK-OV-3; assay type: cell-based; details: Homo sapiens, Ovarian
Procedure: as §1

[44] = system: BT-549; assay: NCI 60 screen, BT-549; assay type: cell-based; details: Homo sapiens, Breast
Procedure: as §1

[45] = system: SK-MEL-2; assay: NCI 60 screen, SK-MEL-2 (second line); assay type: cell-based; details: Homo sapiens; Melanoma, SK-MEL-2 (second of two lines so named, r38)
Procedure: as §1

[46] = system: IGROV1; assay: NCI 60 screen, IGROV1; assay type: cell-based; details: Homo sapiens, IGROV-1, Ovarian
Procedure: as §1

[47] = system: PC-3; assay: NCI 60 screen, PC-3; assay type: cell-based; details: Homo sapiens, Prostatic
Procedure: as §1

[48] = system: OVCAR-4; assay: NCI 60 screen, OVCAR-4; assay type: cell-based; details: Homo sapiens, Ovarian
Procedure: as §1

[49] = system: NCI-322M; assay: NCI 60 screen, NCI-322M; assay type: cell-based; details: Homo sapiens, Non-Small Cell Lung
Procedure: as §1

[50] = system: NCI/ADR-RES; assay: NCI 60 screen, NCI/ADR-RES; assay type: cell-based; details: Homo sapiens, Ovarian
Procedure: as §1

[51] = system: SK-MEL-2; assay: NCI 60 screen, SK-MEL-2 (first line); assay type: cell-based; details: Homo sapiens; Melanoma, SK-MEL-2 (first of two lines so named, r37)
Procedure: as §1

[52] = system: MCF7; assay: NCI 60 screen, MCF7; assay type: cell-based; details: Homo sapiens, Breast
Procedure: as §1

[53] = system: SF-539; assay: NCI 60 screen, SF-539; assay type: cell-based; details: Homo sapiens, CNS
Procedure: as §1

[54] = system: UACC-62; assay: NCI 60 screen, UACC-62; assay type: cell-based; details: Homo sapiens, Melanoma
Procedure: as §1

[55] = system: MDA-MB-468; assay: NCI 60 screen, MDA-MB-468; assay type: cell-based; details: Homo sapiens, Breast
Procedure: as §1

[56] = system: RXF393; assay: NCI 60 screen, RXF393; assay type: cell-based; details: Homo sapiens, RXF 393, Renal
Procedure: as §1

[57] = system: KM12; assay: NCI 60 screen, KM12; assay type: cell-based; details: Homo sapiens, Colon
Procedure: as §1

Compound: Cn1ccnc1C(=O)/C=C/c1ccc(CC(=O)NC2CCCCC2)cc1 [Compound 29, (E)-N-cyclohexyl-2-(4-(3-(1-methyl-1-H-imidazol-2-yl)-3-oxoprop-1-en-1-yl)phenyl) acetamide]
- melting point: 182.5 °C

Compound: Cn1ccnc1C(=O)/C=C/c1ccc(CC(=O)Nc2ccc(Cl)cc2)cc1 [Compound 30, (E)-N-(4-chlorophenyl)-2-(4-(3-(1-methyl-1H-imidazol-2-yl)-3-oxoprop-1-en-1-yl)phenyl)acetamide]
- GI50 [1]: 9.44 µM
- GI50 [2]: 3.49 µM
- GI50 [3]: 4.3 µM
- GI50 [4]: 2500 nM
- GI50 [5]: 999 nM
- GI50 [6]: 7.42 µM
- GI50 [7]: 14.4 µM
- GI50 [8]: 5.23 µM
- GI50 [9]: 1460 nM
- GI50 [10]: 1250 nM
- GI50 [11]: 13.5 µM
- GI50 [12]: 1600 nM
- GI50 [13]: 1310 nM
- GI50 [14]: 1770 nM
- GI50 [15]: 12.3 µM
- GI50 [16]: 9.15 µM
- GI50 [17]: 2270 nM
- GI50 [18]: 25 µM
- GI50 [19]: 4.81 µM
- GI50 [20]: 9.98 µM
- GI50 [21]: 1070 nM
- GI50 [22]: 15.7 µM
- GI50 [23]: 1560 nM
- GI50 [24]: 2040 nM
- GI50 [25]: 1030 nM
- GI50 [26]: 1100 nM
- melting point: 250 °C
- GI50 [27]: 14.2 µM
- GI50 [28]: 1900 nM
- GI50 [29]: 3.42 µM
- GI50 [30]: 1740 nM
- GI50 [31]: 25 µM
- GI50 [32]: 7.39 µM
- GI50 [33]: 4.85 µM
- GI50 [34]: 1150 nM
- GI50 [35]: 2160 nM
- GI50 [36]: 3.04 µM
- GI50 [37]: 889 nM
- GI50 [38]: 959 nM
- GI50 [39]: 15 µM
- GI50 [40]: 1420 nM
- GI50 [41]: 1240 nM
- GI50 [42]: 1580 nM
- GI50 [43]: 8.79 µM
- GI50 [44]: 3.53 µM
- GI50 [45]: 25 µM
- GI50 [46]: 5.27 µM
- GI50 [47]: 1370 nM
- GI50 [48]: 2180 nM
- GI50 [49]: 3.99 µM
- GI50 [50]: 2220 nM
- GI50 [51]: 25 µM
- GI50 [52]: 891 nM
- GI50 [53]: 6.4 µM
- GI50 [54]: 6.5 µM
- GI50 [55]: 1030 nM
- GI50 [56]: 2970 nM
- GI50 [57]: 1510 nM

Compound: O=C(Cc1ccc(/C=C/C(=O)c2ncc[nH]2)cc1)Nc1cc(F)c(F)c(F)c1 [Compound 33, (E)-2-(4-(3-(1H-imidazol-2-yl)-3-oxoprop-1-en-1-yl)phenyl)-N-(3,4,5-trifluorophenyl) acetamide]
- melting point: 255 °C

Compound: O=C(Cc1ccc(/C=C/C(=O)c2ncc[nH]2)cc1)Nc1c(F)c(F)c(F)c(F)c1F [Compound 35, (E)-2-(4-(3-(1H-imidazol-2-yl)-3-oxoprop-1-en-1-yl)phenyl)-N-(perfluorophenyl)acetamide]
- melting point: 235 °C

Compound: O=C(Cc1ccc(/C=C/C(=O)c2ncc[nH]2)cc1)Nc1cc(C(F)(F)F)cc(C(F)(F)F)c1 [Compound 37, (E)-2-(4-(3-(1H-imidazol-2-yl)-3-oxoprop-1-en-1-yl)phenyl)-N-(3,5-bis(trifluoromethyl)phenyl) acetamide]
- melting point: 243 °C
